Experimental data as given in PubChem BioAssay (NCI).
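Results reflect a 48-hour exposure of cells in 96-well plates to compound at five concentrations. Here, GI50 denotes the concentration required for 50% inhibition of growth. TGI is the concentration that stops growth completely.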

Legend:
Assay in all cases: NCI-60 cell line screen, 48 h
U251 CNS = tested on: U251 CNS
HT29 colon = tested on: HT29 colon
HCC-2998 colon = tested on: HCC-2998 colon
NCI-H522 lung = tested on: NCI-H522 lung
MOLT-4 leukemia = tested on: MOLT-4 leukemia
PC-3 prostate = tested on: PC-3 prostate
SF-295 CNS = tested on: SF-295 CNS
SF-539 CNS = tested on: SF-539 CNS
M14 melanoma = tested on: M14 melanoma
RXF 393 renal = tested on: RXF 393 renal

| Compound | GI50 (U251 CNS) [µM] | TGI (U251 CNS) [µM] | GI50 (HT29 colon) [µM] | TGI (HT29 colon) [µM] | GI50 (HCC-2998 colon) [µM] | TGI (HCC-2998 colon) [µM] | GI50 (NCI-H522 lung) [µM] | TGI (NCI-H522 lung) [µM] | GI50 (MOLT-4 leukemia) [µM] | TGI (MOLT-4 leukemia) [µM] | GI50 (PC-3 prostate) [µM] | TGI (PC-3 prostate) [µM] | GI50 (SF-295 CNS) [µM] | TGI (SF-295 CNS) [µM] | GI50 (SF-539 CNS) [µM] | TGI (SF-539 CNS) [µM] | GI50 (M14 melanoma) [µM] | TGI (M14 melanoma) [µM] | TGI (RXF 393 renal) [µM] | GI50 (RXF 393 renal) [µM] |
| --- | --- | --- | --- | --- | --- | --- | --- | --- | --- | --- | --- | --- | --- | --- | --- | --- | --- | --- | --- | --- |
| COc1cccc2c1c(C(=O)C(=O)Nc1cc(C)no1)cn2Cc1ccc(F)cc1 | 4.78 | > 100 | 3.32 | > 100 | 37 | > 100 | 8.51 | > 100 | 3.99 | > 60.7 | 11 | > 84.9 | 6.26 | > 100 | 7.52 | > 80 | 5.42 | > 79.9 | – | – |
| COc1cc(OC(C)=O)cc2c(OC(C)=O)ccc(OC(C)=O)c12 | – | > 100 | – | > 100 | – | – | – | > 100 | – | > 100 | – | – | – | > 100 | – | – | – | > 100 | > 100 | – |
| COc1ccc(/C=C(/C#N)C(N)=O)cc1OC | – | > 100 | – | > 100 | – | – | – | > 100 | – | > 100 | – | > 100 | – | > 100 | – | > 100 | – | > 100 | > 100 | – |
| COC(C(=O)[O][Ge]([CH3])([CH3])[CH3])c1ccccc1 (stereo not drawn) | > 100 | > 100 | > 100 | > 100 | > 100 | > 100 | > 100 | > 100 | > 100 | > 100 | – | – | > 100 | > 100 | > 100 | > 100 | > 100 | > 100 | > 100 | > 100 |
| Cc1[nH]ccc2c1[nH]c1cc(=O)ccc12 | – | > 100 | – | > 100 | – | > 100 | – | – | – | 85.9 | – | – | – | > 100 | – | > 100 | – | > 100 | > 100 | – |
| CCOc1ccc(NC(=O)C(=O)CC(=O)C2=C(C)Nc3ccccc3S2)cc1 | – | > 50 | – | > 50 | – | > 50 | – | > 50 | – | > 50 | – | – | – | > 50 | – | > 50 | – | > 50 | > 50 | – |
| CC1SC2=NC3=C(c4ccccc4C3=O)C(c3ccc(F)cc3)N2C1=O (stereo not drawn) | – | > 100 | – | > 100 | – | > 100 | – | > 100 | – | > 100 | – | – | – | > 100 | – | > 100 | – | > 100 | – | – |
| CCc1ccccc1NC(=O)C(=O)CC(=O)c1sc(Nc2ccccc2)nc1C | – | > 100 | – | > 100 | – | > 100 | – | > 100 | – | > 100 | – | – | – | > 100 | – | > 100 | – | > 100 | > 100 | – |
| CCCCC(CC)CN=C(N)NC(N)=NCCCCCCN=C(N)NC(N)=NCC(CC)CCCC (stereo not drawn) | – | – | – | – | – | – | – | – | – | – | – | – | – | – | – | – | 2.49 | 6.03 | 6.43 | 2.27 |
| C=CCC[CH2][Sn]([c]1ccccc1)([c]1ccccc1)[c]1ccccc1 | 1.65 | 3.01 | 2.25 | 4.73 | 1.69 | 3.11 | 1.19 | 2.49 | 1.26 | 5.27 | – | – | 1.99 | 3.6 | 1.94 | 3.52 | 1.62 | 3.09 | 2.66 | 1.34 |
